The text below walks through data of publication PMC3565020 (ChemMedChem, 2012).

The nature of one data set: Sulforhodamine. The note with it: human. Type of data set: cell-based, human.
Data set [1] concerns L. donovani promastigotes. Kind of data set: L. donovani promastigote viability, 72 hour Alamar blue assay. Type of data set: cell-based, Leishmania donovani. The note with it: for IC50: read-out: L. donovani Promastigotes IC50. A general note: The colour change of resazurin is a common sign of viable cells or microbes.
The subject of data set [2] is L. donovani axenic amastigotes. Kind of data set: L. donovani axenic amastigote viability, 72 hour Alamar blue assay. Type of data set: cell-based, Leishmania donovani.
Data set [3] concerns LU-1 human lung carcinoma cell line. Nature of the data set: Sulforhodamine. The settings on record: for Cytotoxicity LU-1 CC50 / CC50: LU-1 human lung carcinoma, SRB; for CC50: read-out: Cytotoxicity LU-1 CC50. Type of data set: cell-based.
Another data set has as its system VERO cells. The settings on record: previous report; cited from earlier work.
The test system of another data set is J-774 murine macrophages. Kind of data set: Cytotoxicity against murine macrophage cells. The note with it: for Cytotoxicity J-774 murine macrophages CC50 / CC50: J-774, Alamar blue; for CC50: read-out: Cytotoxicity J-774 murine macrophages CC50.
A short description of data set [4]: Cytotoxicity against murine macrophage cells. The note with it: mouse.
Setting [5] is: 72 hour Alamar blue, pH 5.5, 37°C.
Where [6] appears, read: read-out: L. donovani Axenic amastigotes IC50, 72 hour Alamar blue, pH 5.5, 37°C.

Several values for one entry are separate records, joined by “and”; a condition that tells them apart may be missing. Equal entries are not always repeated. Where two headings read alike, the source gives them in different places. A value given as a limit tells only on which side of the number the result lay.

The CC50 is the concentration that lowers cell viability or growth by half. `C[C@@H]1[C@H](O)[C@@H](C)/C=C/C=C/C=C/C=C/C=C/C=C/C=C/[C@H](O[C@@H]2O[C@H](C)[C@@H](O)[C@H](N)[C@@H]2O)C[C@@H]2O[C@](O)(C[C@@H](O)C[C@@H](O)[C@H](O)CC[C@@H](O)C[C@@H](O)CC(=O)O[C@H]1C)C[C@H](O)[C@H]2C(=O)O` [Amphotericin B, reference compound] registered a CC50 in the data set “Sulforhodamine” (LU-1 lung carcinoma cells) greater than 40 µg/mL.

As a reminder, the IC50 is the concentration at which inhibition is half-maximal. As to `COc1ccc2[nH]c3ccc(C=O)cc3c2c1` [Compound 5g], in data set [1] (72 hour Alamar blue, 26°C), the “L. donovani Promastigotes IC50” value was 27 µg/mL and the IC50 stood at 120 µM. Moreover, in data set [2] (setting [5]), the “L. donovani Axenic amastigotes IC50” value was “NA^[g] (NA (Not active): IC50 > 40 μg/mL)”. Besides, the “Cytotoxicity LU-1 CC50” value in data set [3] is “NC^[h] (NC (Noncytotoxic): CC50 > 40 μg/mL)”. Also, the “CC values in VERO cells” value in the data set with VERO cells is greater than 102 µg/mL. Further, in the data set with J-774 murine macrophages, the “Cytotoxicity J-774 murine macrophages CC50” value was “NC (NC (Noncytotoxic): CC50 > 40 μg/mL)”.

Regarding `COc1ccc2[nH]c3cc(O)c(C=O)cc3c2c1` [Compound 6a, lansine], the IC50 is 89.1 µM and 21.5 µg/mL in data set [1] (Leishmania donovani, 72 h); 11 µg/mL and 45.6 µM in data set [2] (Leishmania donovani, 72 h, pH 5.5, read-out: L. donovani Axenic amastigotes IC50). Besides, the CC50 in “Sulforhodamine” is 16.5 µg/mL and 68.4 µM; in data set [4] it was 20 µg/mL and 82.9 µM. The “SI-1 (Selectivity Index-1) = CC50 (LU-1)/IC50 (amastigotes)” value in data set [3] (LU-1 vs axenic amastigotes) is on record as 2. For the same compound, the “CC values in VERO cells” value in the data set with VERO cells is greater than 102 µg/mL. For the same compound, in the data set on J-774 murine macrophages (J-774 vs axenic amastigotes), the “SI-2 (Selectivity Index-2) = CC50 (J-774)/IC50 (amastigotes)” value was determined as 2.

Turning to `O=Cc1cc2c(cc1O)[nH]c1ccccc12` [Compound 6b], in data set [1] (72 hour Alamar blue, 26°C), the “L. donovani Promastigotes IC50” value was 35.4 µg/mL and the IC50 was determined as 168 µM. In addition, the “L. donovani Axenic amastigotes IC50” value in data set [2] (setting [5]) was 11.0 µg/mL. Also, the IC50 in data set [2] (setting [6]) was 52 µM. In data set [3], the “Cytotoxicity LU-1 CC50” value worked out at 45 µg/mL and the CC50 is 213 µM. In addition, in the data set on J-774 murine macrophages, the “Cytotoxicity J-774 murine macrophages CC50” value came to 21 µg/mL and the CC50 was 99.4 µM.

`O=Cc1cc2c(cc1O)[nH]c1ccc(C(F)(F)F)cc12` [Compound 6c]: in data set [1] (72 hour Alamar blue, 26°C), the “L. donovani Promastigotes IC50” value came out at 7.3 µg/mL and the IC50 amounted to 26.2 µM. Moreover, the “L. donovani Axenic amastigotes IC50” value in data set [2] (setting [5]) was found to be 6.0 µg/mL. The IC50 in data set [2] (setting [6]) was found to be 21.5 µM. In data set [3], the “Cytotoxicity LU-1 CC50” value was found to be 21 µg/mL and the CC50 turned out to be 75.2 µM. Further, in the data set with J-774 murine macrophages, the “Cytotoxicity J-774 murine macrophages CC50” value amounted to 9.8 µg/mL and the CC50 was found to be 35.1 µM.

In the case of `O=Cc1cc2c(cc1O)[nH]c1ccc(OC(F)(F)F)cc12` [Compound 6d], in data set [1] (72 hour Alamar blue, 26°C), the “L. donovani Promastigotes IC50” value stood at 3.7 µg/mL and the IC50 is 12.6 µM. The “L. donovani Axenic amastigotes IC50” value in data set [2] (setting [5]) is 2.1 µg/mL. In data set [2] (setting [6]), the IC50 came out at 7.1 µM. For the same compound, in data set [3], the “Cytotoxicity LU-1 CC50” value worked out at 45 µg/mL and the CC50 came out at 152 µM. For the same compound, in the data set with J-774 murine macrophages, the “Cytotoxicity J-774 murine macrophages CC50” value was 8.0 µg/mL and the CC50 was 27.1 µM.

Regarding `O=Cc1cc2c(cc1O)[nH]c1ccc([N+](=O)[O-])cc12` [Compound 6f], the “L. donovani Promastigotes IC50” value in data set [1] (72 hour Alamar blue, 26°C) is reported as “NA (NA (Not active): IC50 > 40 μg/mL)”. Also, the “L. donovani Axenic amastigotes IC50” value in data set [2] (setting [5]) is “NA (NA (Not active): IC50 > 40 μg/mL)”. For the same compound, the “Cytotoxicity LU-1 CC50” value in data set [3] is “NC (NC (Noncytotoxic): CC50 > 40 μg/mL)”. Moreover, in the data set with J-774 murine macrophages, the “Cytotoxicity J-774 murine macrophages CC50” value stood at 20.0 µg/mL and the CC50 was 78 µM.

On to `O=Cc1cc2c(cc1O)[nH]c1ccc(O)cc12` [Compound 7, 2,6-Dihydroxy-9H-carbazole-3-carbaldehyde], for which the CC50 in the data set “Sulforhodamine” (LU-1 lung carcinoma cells) is greater than 40 µg/mL; in data set [4] (J774 macrophage cells), 32 µg/mL and 141 µM.

As for `COc1ccc2[nH]c3cc(OC)c(C=O)cc3c2c1` [Compound 8, 2,6-Dimethoxy-9H-carbazole-3-carbaldehyde], the CC50 (in the data set “Sulforhodamine” (LU-1 lung carcinoma cells); in data set [4] (J774 macrophage cells)) was greater than 40 µg/mL in each case.

For `COc1ccc2c(c1)c1cc(C=O)c(OC)cc1n2C` [Compound 9, 2,6-dimethoxy-9-methyl-9H-carbazole-3-carbaldehyde], the CC50 (in the data set “Sulforhodamine” (LU-1 lung carcinoma cells); in data set [4] (J774 macrophage cells)) was greater than 40 µg/mL each time.

Take `COc1ccc2[nH]c3cc(O)c(CO)cc3c2c1` [Compound 11]: the “L. donovani Promastigotes IC50” value in data set [1] (72 hour Alamar blue, 26°C) is reported as “NA (NA (Not active): IC50 > 40 μg/mL)”. In data set [2] (setting [5]), the “L. donovani Axenic amastigotes IC50” value was 10.0 µg/mL. Further, the IC50 in data set [2] (setting [6]) was 41.1 µM. Also, in data set [3], the “Cytotoxicity LU-1 CC50” value is greater than 60 µg/mL and the CC50 is greater than 247 µM. Further, in the data set on J-774 murine macrophages, the “Cytotoxicity J-774 murine macrophages CC50” value is recorded as “NC (NC (Noncytotoxic): CC50 > 40 μg/mL)”.

For `COc1ccc2[nH]c3cc(O)c(C)cc3c2c1` [Compound 13], in data set [1] (72 hour Alamar blue, 26°C), the “L. donovani Promastigotes IC50” value was 17.7 µg/mL and the IC50 was found to be 78 µM. Besides, the “L. donovani Axenic amastigotes IC50” value in data set [2] (setting [5]) is 11.5 µg/mL. Moreover, the IC50 in data set [2] (setting [6]) came to 50.6 µM. In data set [3], the “Cytotoxicity LU-1 CC50” value amounted to 30 µg/mL and the CC50 stood at 132 µM. Further, in the data set with J-774 murine macrophages, the “Cytotoxicity J-774 murine macrophages CC50” value was 20 µg/mL and the CC50 was 88.1 µM.

On to `CCn1c2ccccc2c2cc(C=O)ccc21` [Compound 14], for which, in data set [1] (72 hour Alamar blue, 26°C), the “L. donovani Promastigotes IC50” value came to 38.6 µg/mL and the IC50 amounted to 173 µM. In addition, in data set [2] (setting [5]), the “L. donovani Axenic amastigotes IC50” value is given as “NA (NA (Not active): IC50 > 40 μg/mL)”. For the same compound, in data set [3], the “Cytotoxicity LU-1 CC50” value worked out at 25 µg/mL and the CC50 is 112 µM. In the data set on J-774 murine macrophages, the “Cytotoxicity J-774 murine macrophages CC50” value was 21 µg/mL and the CC50 amounted to 94.1 µM.

Take `Oc1ccc2c(c1)[nH]c1ccccc12` [Compound 15]: in data set [1] (72 hour Alamar blue, 26°C), the “L. donovani Promastigotes IC50” value turned out to be 28.5 µg/mL and the IC50 is 156 µM. The “L. donovani Axenic amastigotes IC50” value in data set [2] (setting [5]) was found to be 10.0 µg/mL. Further, the IC50 in data set [2] (setting [6]) was 54.6 µM. Moreover, in data set [3], the “Cytotoxicity LU-1 CC50” value stood at 40 µg/mL and the CC50 stood at 218 µM. Besides, the “Cytotoxicity J-774 murine macrophages CC50” value in the data set on J-774 murine macrophages is recorded as “NC (NC (Noncytotoxic): CC50 > 40 μg/mL)”.

Regarding `Cn1c2ccccc2c2ccccc21` [Compound 16], in data set [1] (72 hour Alamar blue, 26°C), the “L. donovani Promastigotes IC50” value is 37.0 µg/mL and the half-maximal inhibitory concentration (IC50) was 204 µM. Besides, the “L. donovani Axenic amastigotes IC50” value in data set [2] (setting [5]) is given as “NA (NA (Not active): IC50 > 40 μg/mL)”. In addition, the “Cytotoxicity LU-1 CC50” value in data set [3] is reported as “NC (NC (Noncytotoxic): CC50 > 40 μg/mL)”. The “Cytotoxicity J-774 murine macrophages CC50” value in the data set on J-774 murine macrophages is given as “NC (NC (Noncytotoxic): CC50 > 40 μg/mL)”.

In the case of `N=C(N)c1ccc(OCCCCCOc2ccc(C(=N)N)cc2)cc1` [Pentamidine, reference compound], the IC50 in data set [1] (72 hour Alamar blue, 26°C) was 3.5 µM; in data set [2] (setting [6]) it was 2.9 µM. Also, in “Sulforhodamine” (LU-1 lung carcinoma cells), the CC50 is 0.5 µg/mL and 1.5 µM.
